Results on 27 compounds are retold here after patent US12110288B2, “MASP-2 inhibitors and methods of use” (Omeros Corporation, priority 2019, dated 2024).

Structures can show the parent of a compound that is named as a salt.

For this test, the target named is T1, MASP-2 (CCP1-CCP2-SP) (Homo sapiens, UniProt O00187).
T1 construct: 15 μL of Enzyme MASP-2 (CCP1-CCP2-SP) in Assay Buffer
T1 sequence (O00187 445-686 limits assumed): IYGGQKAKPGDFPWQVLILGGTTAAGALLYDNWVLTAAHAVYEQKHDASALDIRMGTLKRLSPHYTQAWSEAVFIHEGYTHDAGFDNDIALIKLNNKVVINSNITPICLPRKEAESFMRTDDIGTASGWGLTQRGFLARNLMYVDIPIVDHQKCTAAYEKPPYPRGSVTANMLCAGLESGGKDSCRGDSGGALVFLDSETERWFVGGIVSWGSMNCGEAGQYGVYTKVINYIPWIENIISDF
T1 sequence (O00187 298-444 partner limits assumed): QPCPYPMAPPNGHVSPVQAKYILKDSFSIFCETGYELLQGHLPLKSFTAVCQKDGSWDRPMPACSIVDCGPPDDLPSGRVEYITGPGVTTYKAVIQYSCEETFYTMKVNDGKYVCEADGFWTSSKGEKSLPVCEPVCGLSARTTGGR
The test can be described thus: Enzymatic Assay for MASP-2. Particulars: fluorogenic substrate based on C2 cleavage site, room temperature, 20 mM HEPES pH 7.4. The test is classed as biochemical. The method in brief:
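Fluorogenic substrate modelled on the C2 cleavage site, run at room temperature in 20 mM HEPES pH 7.4, 140 mM NaCl, 0.1% Tween 20; compounds were added from DMSO serial dilutions before enzyme and substrate. Reactions ran 20 min and were stopped with 0.1 M acetic acid before fluorescence was read. % activity was normalised to DMSO-only and no-enzyme controls; IC50 was taken as Ki, with tight- or slow-binding inhibitors handled separately.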
Usually Ki stands for a dissociation constant, usually derived from enzyme kinetics or from competition with a known ligand. The low end stands for a stronger hold on the target, the high end for a looser hold on the target. As to `O=C(Cn1c(-c2ccc(Cl)s2)cnc(NCCc2ccccc2)c1=O)NCc1cc2cnccc2[nH]1` [Compound 89, N-((1H-Pyrrolo[3,2-c]Pyridin-2-yl)Methyl)-2-(6-(5-Chlorothiophen-2-yl)-2-Oxo-3-(Phenethylamino)Pyrazin-1(2H)-yl)Acetamide], the Ki was less than 500 nM. For `O=C(Cn1c(-c2cnn(C3COC3)c2)cnc(NCCc2ccccc2)c1=O)NCc1cc2cnccc2[nH]1` [Compound 90, N-((1H-pyrrolo[3,2-c]pyridin-2-yl)methyl)-2-(6-(1-(oxetan-3-yl)-1H-pyrazol-4-yl)-2-oxo-3-(phenethylamino)pyrazin-1(2H)-yl)acetamide trifluoroacetate] the value was less than 500 nM; for `C=C(C)c1cccc(-c2cnc(NCCc3ccccc3)c(=O)n2CC(=O)NCc2cc3cnccc3[nH]2)c1` [Compound 91, N-((1H-Pyrrolo[3,2-c]Pyridin-2-yl)Methyl)-2-(2-Oxo-3-(Phenethylamino)-6-(3-(Prop-1-en-2-yl)Phenyl)Pyrazin-1(2H)-yl)Acetamide], less than 500 nM. For `CC(C)(O)c1cccc(-c2cnc(NCCc3ccccc3)c(=O)n2CC(=O)NCc2cc3cnccc3[nH]2)c1` [Compound 92, N-((1H-Pyrrolo[3,2-c]pyridin-2-yl)methyl)-2-(6-(3-(2-hydroxypropan-2-yl)phenyl)-2-oxo-3-(phenethylamino)pyrazin-1(2H)-yl)acetamide] the value was less than 500 nM. `COC(=O)Cc1cccc(-c2cnc(NCCc3ccccc3)c(=O)n2CC(=O)NCc2cc3cnccc3[nH]2)c1` [Compound 93, Methyl 2-(3-(1-(2(((1H-pyrrolo[3,2-c]pyridin-2-yl)methyl)amino)-2-oxoethyl)-6-oxo-5-(phenethylamino)-1,6-dihydropyrazin-2-yl)phenyl)acetate trifluoroacetate] came in with a Ki of less than 500 nM. For `O=C(O)Cc1cccc(-c2cnc(NCCc3ccccc3)c(=O)n2CC(=O)NCc2cc3cnccc3[nH]2)c1` [Compound 94, 2-(3-(1-(2-(((1H-Pyrrolo[3,2-c]Pyridin-2-yl)Methyl) Amino)-2-Oxoethyl)-6-Oxo-5-(Phenethylamino)-1,6-Dihydropyrazin-2-yl)Phenyl)Acetic Acid Trifluoroacetate] the value was less than 500 nM. Compound `CS(=O)(=O)NCc1cccc(-c2cnc(NCCc3ccccc3)c(=O)n2CC(=O)NCc2cc3cnccc3[nH]2)c1` [Compound 95, N-((1H-Pyrrolo[3,2-c]Pyridin-2-yl)Methyl)-2-(6-(3-(Methylsulfonamidomethyl)Phenyl)-2-Oxo-3-(Phenethylamino)Pyrazin-1(2H)-yl)Acetamide] registered a Ki of less than 500 nM. For `NCc1cccc(-c2cnc(NCCc3ccccc3)c(=O)n2CC(=O)NCc2cc3cnccc3[nH]2)c1` [Compound 96, N-((1H-Pyrrolo[3,2-c]Pyridin-2-yl)Methyl)-2-(6-(3-(Aminomethyl)Phenyl)-2-Oxo-3-(Phenethylamino)Pyrazin-1(2H)-yl)Acetamide] the value was less than 500 nM; for `O=C(Cn1c(-c2cccc(C(O)C(F)(F)F)c2)cnc(NCCc2ccccc2)c1=O)NCc1cc2cnccc2[nH]1` (stereo not drawn) [Compound 97, N-((1H-Pyrrolo[3,2-c]pyridin-2-yl)methyl)-2-(2-oxo-3-(phenethylamino)-6-(3-(2,2,2-trifluoro-1-hydroxyethyl)phenyl)pyrazin-1(2H)-yl)acetamide], less than 500 nM; for `O=C(Cn1c(-c2cccc(C3(O)CC3)c2)cnc(NCCc2ccccc2)c1=O)NCc1cc2cnccc2[nH]1` [Compound 98, N-((1H-Pyrrolo[3,2-c]pyridin-2-yl)methyl)-2-(6-(3-(1-hydroxycyclopropyl)phenyl)-2-oxo-3-(phenethylamino)pyrazin-1(2H)-yl)acetamide], less than 500 nM. Compound `O=C(Cn1c(-c2cccc(C3(O)COC3)c2)cnc(NCCc2ccccc2)c1=O)NCc1cc2cnccc2[nH]1` [Compound 99, N-((1H-Pyrrolo[3,2-c]pyridin-2-yl)methyl)-2-(6-(3-(3-hydroxyoxetan-3-yl)phenyl)-2-oxo-3-(phenethylamino)pyrazin-1(2H)-yl)acetamide] came in with a Ki of less than 500 nM. Turning to `CC(O)c1cccc(-c2cnc(NCCc3ccccc3)c(=O)n2CC(=O)NCc2cc3cnccc3[nH]2)c1` (stereo not drawn) [Compound 100, N-((1H-Pyrrolo[3,2-c]Pyridin-2-yl)Methyl)-2-(6-(3-(1-Hydroxyethyl)Phenyl)-2-Oxo-3-(Phenethylamino)Pyrazin-1(2H)-yl)Acetamide], the inhibition constant (Ki) was less than 500 nM. The compound `Cn1cc(-c2cnc(NCCc3ccccc3)c(=O)n2CC(=O)NCc2cc3cnccc3[nH]2)cn1` [Compound 101, N-((1H-Pyrrolo[3,2-c]pyridin-2-yl)methyl)-2-(6-(1-methyl-1H-pyrazol-4-yl)-2-oxo-3-(phenethylamino)pyrazin-1(2H)-yl)acetamide] displayed a Ki of less than 500 nM.

In the case of `O=C(Cn1c(-c2cn[nH]c2)cnc(NCCc2ccccc2)c1=O)NCc1cc2cnccc2[nH]1` [Compound 102, N-((1H-Pyrrolo[3,2-c]pyridin-2-yl)methyl)-2-(2-oxo-3-(phenethylamino)-6-(1H-pyrazol-4-yl)pyrazin-1(2H)-yl)acetamide], the Ki is less than 500 nM. On to `CC(C)n1cc(-c2cnc(NCCc3ccccc3)c(=O)n2CC(=O)NCc2cc3cnccc3[nH]2)cn1` [Compound 103, N-((1H-Pyrrolo[3,2-c]pyridin-2-yl)methyl)-2-(6-(1-isopropyl-1H-pyrazol-4-yl)-2-oxo-3-(phenethylamino)pyrazin-1(2H)-yl)acetamide], for which the Ki was less than 500 nM. With `Cc1nn(C)cc1-c1cnc(NCCc2ccccc2)c(=O)n1CC(=O)NCc1cc2cnccc2[nH]1` [Compound 104, N-((1H-Pyrrolo[3,2-c]pyridin-2-yl)methyl)-2-(6-(1,3-dimethyl-1H-pyrazol-4-yl)-2-oxo-3-(phenethylamino)pyrazin-1(2H)-yl)acetamide], the Ki was less than 500 nM. For `Cn1nccc1-c1cnc(NCCc2ccccc2)c(=O)n1CC(=O)NCc1cc2cnccc2[nH]1` [Compound 105, N-((1H-Pyrrolo[3,2-c]pyridin-2-yl)methyl)-2-(6-(1-methyl-1H-pyrazol-5-yl)-2-oxo-3-(phenethylamino)pyrazin-1(2H)-yl)acetamide] the value was less than 500 nM; for `O=C(Cn1c(-c2ccc(F)cc2)cnc(NCCc2ccccc2)c1=O)NCc1cc2cnccc2[nH]1` [Compound 106, N-((1H-Pyrrolo[3,2-c]pyridin-2-yl)methyl)-2-(6-(4-fluorophenyl)-2-oxo-3-(phenethylamino)pyrazin-1(2H)-yl)acetamide], less than 500 nM. For `O=C(Cn1c(-c2cc(F)ccc2F)cnc(NCCc2ccccc2)c1=O)NCc1cc2cnccc2[nH]1` [Compound 107, N-((1H-Pyrrolo[3,2-c]pyridin-2-yl)methyl)-2-(6-(2,5-difluorophenyl)-2-oxo-3-(phenethylamino)pyrazin-1(2H)-yl)acetamide] the value was less than 500 nM; for `Cc1ccc(C)c(-c2cnc(NCCc3ccccc3)c(=O)n2CC(=O)NCc2cc3cnccc3[nH]2)c1` [Compound 108, N-((1H-Pyrrolo[3,2-c]pyridin-2-yl)methyl)-2-(6-(2,5-dimethylphenyl)-2-oxo-3-(phenethylamino)pyrazin-1(2H)-yl)acetamide], less than 500 nM. Regarding `O=C(Cn1c(Br)cnc(NCCc2ccccc2)c1=O)NCc1cc2cnccc2[nH]1` [Compound 109, N-((1H-Pyrrolo[3,2-c]Pyridin-2-yl)Methyl)-2-(6-Bromo-2-Oxo-3-(Phenethylamino)Pyrazin-1(2H)-yl)Acetamide], the Ki is less than 500 nM. As for `O=C(Cn1c(-c2cnn(C3CCC3)c2)cnc(NCCc2ccccc2)c1=O)NCc1cc2cnccc2[nH]1` [Compound 110, N-((1H-Pyrrolo[3,2-c]pyridin-2-yl)methyl)-2-(6-(1-cyclobutyl-1H-pyrazol-4-yl)-2-oxo-3-(phenethylamino)pyrazin-1(2H)-yl)acetamide], the Ki was less than 500 nM. For `CC(C)(C)OC(=O)N1CC(n2cc(-c3cnc(NCCc4ccccc4)c(=O)n3CC(=O)NCc3cc4cnccc4[nH]3)cn2)C1` [Compound 111, tert-Butyl 3-(4-(1-(2(((1H-pyrrolo[3,2-c]pyridin-2-yl)methyl)amino)-2-oxoethyl)-6-oxo-5-(phenethylamino)-1,6-dihydropyrazin-2-yl)-1H-pyrazol-1-yl)azetidine-l-carboxylate] the value was less than 500 nM. As to `O=C(Cn1c(-c2cnn(C3CNC3)c2)cnc(NCCc2ccccc2)c1=O)NCc1cc2cnccc2[nH]1` [Compound 112, N-((1H-Pyrrolo[3,2-c]Pyridin-2-yl)Methyl)-2-(6-(1-(Azetidin-3-yl)-1H-Pyrazol-4-yl)-2-Oxo-3-(Phenethylamino)Pyrazin-1(2H)-yl)Acetamide Hydrochloride], the Ki was less than 500 nM. For `O=C(Cn1c(-c2cnn(C(F)F)c2)cnc(NCCc2ccccc2)c1=O)NCc1cc2cnccc2[nH]1` [Compound 113, N-((1H-Pyrrolo[3,2-c]pyridin-2-yl)methyl)-2-(6-(1-(difluoromethyl)-1H-pyrazol-4-yl)-2-oxo-3-(phenethylamino)pyrazin-1(2H)-yl)acetamide] the value was less than 500 nM; for `Cc1nn(C2CC2)cc1-c1cnc(NCCc2ccccc2)c(=O)n1CC(=O)NCc1cc2cnccc2[nH]1` [Compound 114, N-((1H-Pyrrolo[3,2-c]pyridin-2-yl)methyl)-2-(6-(1-cyclopropyl-3-methyl-1H-pyrazol-4-yl)-2-oxo-3-(phenethylamino)pyrazin-1(2H)-yl)acetamide], less than 500 nM. Compound `O=C(Cn1c(-c2cnn3c2CCC3)cnc(NCCc2ccccc2)c1=O)NCc1cc2cnccc2[nH]1` [Compound 115, N-((1H-Pyrrolo[3,2-c]pyridin-2-yl)methyl)-2-(6-(5,6-dihydro-4H-pyrrolo[1,2-b]pyrazol-3-yl)-2-oxo-3-(phenethylamino)pyrazin-1(2H)-yl)acetamide] registered an inhibition constant Ki of less than 500 nM.
